Results: patent US10584146B2, “Heme peptide materials for anti-inflammatory regenerative nanobiomedicine” (UCHICAGO ARGONNE, LLC, priority 2016, dated 2020)
Entries after “also recorded” stand apart in the source; their conditions may differ. The star is where a group is joined. Palmitoyl = CCCCCCCCCCCCCCCC(=O)*

Legend:
[1] = Peroxidase activity assay (TMB oxidation with H2O2); assay type: biochemical; settings: for peroxidase activity over extended times: TMB ~300 μM, H2O2 ~300 μM, Peptide 10 μM, Heme 1 μM, HEPES pH 7; for peroxidase activity (oxidation of TMB): assemblies prepared in pH 7 HEPES (micelles), assay at pH 7, peptide 10 μM, heme 1 μM
Procedure: Peroxidase Activity Assay. Peroxidase activity was monitored using a Varian Cary 50 spectrophotometer and the kinetics software package. 652 nm was the chosen wavelength based on its characterization in the literature (extinction coefficient: 39,000 M−1 cm-1). In a solution of HEPES buffer, pH 7 (50 mM HEPES 100 mM NaCl), a commercially available cocktail of 3,3′,5,5′-Tetramethylbenzidine (TMB) and H2O2 (both ˜3 mM, purchased from Sigma-Aldrich) was diluted 1:10. This was monitored for 1 minute to detect any changes in the background then protein was added (prepared as above at 500 μM peptide and 50 μM heme) to a final concentration of 10 μM (1 μM Heme). The reaction was allowed to run for 15 minutes to assure completion. In the case of Michaelis-Menten analyses two stock solutions of TMB (10 mg/mL, 41.6 mM in DMSO) and peroxide (52.8 mM diluted in H2O, H2O2 stock concentration standardized by the method of Klassen et. al.) (57) were made so the concentrations could be varied de-pending on the experiment. When varying peroxide concentration TMB was at a concentration of 300 μM. Michaelis-Menten curves were fit using Origin 9.1 software to the equation (v0=kCat[E]0[S]0/(KM+[S]0)). Catalytic efficiency values (kCat/KM) were determined by fitting the linear portion of those curves to the equation (v0=(kCat/KM)[E]0[S]0). Total amount of oxidized TMB was calcu-lated by integrating the absorbance at 652 nm (done with Origin 9.1 software), and dividing that value by the extinction coefficient.
Many natural and synthetic heme proteins display peroxidase activity, a natural reaction that catalyzes the oxidation of high potential substrates using hydrogen peroxide (H2O2). Here, we employed heme-peroxidase catalysis as a benchmark reaction to investigate how supramolecular morphology in PA-Heme assemblies can control catalytic reactivity. (53) We have chosen the established protocol where H2O2 activated by the XXHeme assemblies reacts with the colorless molecule 3,3′,5,5′-tetramethylbenzidine (TMB) to yield the oxidized blue diimine product and water. (54) All of these assays were carried out in pH 7 HEPES buffer. Peptide assemblies were prepared in either pH 7 HEPES or 10.5 NH4OH and then diluted 50 fold into the reaction mixture to maintain standard reaction conditions. […] The rates of these peptides are consistent with the Michaelis-Menten enzyme kinetics model (FIGS. 19C, 19D, and 21). […] Applicants show a clear and significant dependence of peroxidase activity dependent on supramolecular morphology. […] The micelle structures offer a more dynamic assembly that allows substrate to interact with the engineered heme active site.

[2] = Heme titration, stoichiometry and binding constant analysis (UV/visible)
Procedure: FIGS. 14A-14P depict stoichiometry and binding constant analysis of peptide titrations (0-1000 μM XX in 50 μM titrants) into heme solutions (50 μM) in Hepes buffer (right) or 10 mM NH4OH (left). UV/visible spectroscopy and plots of [Peptide]/[Heme] vs. absorption (λSoret). The solid lines represent the binding constant analysis and were obtained in Origin v9.1 by applying equation 1 (FIG. 15). The following values were fixed: M=5×10^−5 M, 1=0.1 cm. All other values were permitted to float for the first round of analysis. Once n was determined, a common integer was applied to each data set within the conditions employed, e.g. n=3 for HEPES and n=6 for 10 mM NH4OH. The vertical line at x=10 marks the samples that were analyzed further by UV/vis and EPR.
FIG. 15 is the equation employed for stoichiometry and binding constant analysis; the follow variables are used: Ao, initial absorption; ϵB, extinction of bound heme; ϵs, extinction coefficient contribution from scattering; x, ratio of peptide to heme; n, set stoichiometry of peptide to heme; Kd, dissociation (binding) constant M, molar concentration of heme; l, cuvette pathlength.
Sample Preparation. Each peptide (3-4 mg) was dissolved in nanopure water (Millipore A10) to obtain a 1 wt % solution, c16-AAL3K3-CO2H (SEQ ID NO: 9) (1 wt %, 8.9 mM), c16-AHL3K3-CO2H (SEQ ID NO: 3) (1 wt %, 8.4 mM), c16-HHL3K3-CO2H (SEQ ID NO: 4) (1 wt %, 7.9 mM) and c16-MHL3K3-CO2H (SEQ ID NO: 5) (1 wt %, 8.0 mM). Hemin (Porcine, Sigma-Aldrich) was dissolved in DMSO (Sigma Aldrich) to achieve a 10 mM stock solution. Note: He-min/DMSO stock solutions were always made to ensure that the final DMSO concentration in the sam-ple was less than 1% (v/v). Typically, 38 μL of a 1 wt % stock solution was dissolved in 260 μL of ei-ther HEPES (50 mM HEPES, 100 mM NaCl pH 7.0) or 10 mM NH4OH, pH 10.5 to yield a 1 mM sample. […] Titration experiments analyzed samples that contained 50 μM Heme in either Hepes buffer or 10 mM NH4OH. […]

[3] = Spectroelectrochemistry, midpoint potential; assay type: physicochemical
Procedure: Electrochemistry. The samples were placed in a spectroecltrochemical cell (1 mm quartz) equipped with a platinum mesh working electrode, platinum wire auxiliary electrode, and a Ag/AgCl reference electrode (Basi, Inc.). […] Each applied voltage setting was allowed to equilibrate for a minimum of 20 minutes prior to UV/visible spectral acquisition (Perkin Elmer, Lambda 950, UV/vis/NIR spectrophotometer). Midpoint potential analysis was achieved by fitting a standard Boltzmann curve to the obtained data (OriginPro 9.1).

Substance	peroxidase activity over extended times [1]	peroxidase activity (oxidation of TMB) [1]	heme binding affinity (Kd), in words ([2]; fibers, compared with micelles)	midpoint potential (EM) vs. SHE ([3]; fibers, 10 mM NH4OH)	midpoint potential (EM) vs. SHE ([3]; micelles, HEPES)	heme binding affinity (Kd), in words ([2]; micelles)	kCat, in words ([1]; micelles, pH 7)
c16-AAL3K3-CO2H (Palmitoyl-AALLLKKK-OH; also: heme) [AAHeme, control peptide amphiphile without heme coordination site; XXHeme denotes the holo state (coordinated heme)]	does not appear to have any activity	not reactive					
c16-AHL3K3-CO2H (Palmitoyl-AHLLLKKK-OH; also: heme) [AHHeme, XXHeme denotes the holo state]	most initial activity	varying degrees of peroxidase activity	binding affinity actually increases	−655 mV	−315 mV		
c16-HHL3K3-CO2H (Palmitoyl-HHLLLKKK-OH; also: heme) [HHHeme, XXHeme denotes the holo state]		varying degrees of peroxidase activity; also recorded: low reactivity compared to the other peptides		−333 mV	−270 mV	highest binding affinity	
c16-MHL3K3-CO2H (Palmitoyl-MHLLLKKK-OH; also: heme) [MHHeme, XXHeme denotes the holo state]	most initial activity	varying degrees of peroxidase activity	decrease in heme binding affinity	−442 mV	−312 mV		higher kCat, than HHHeme
